Measured values taken from the CheMixHub viscosity set.

Experiment: xn = mol fraction of the nth substance listed

CCCCCCCCCl + CCCCCCCCCC
298 K, 101.3 kPa
Conditions | viscosity [mPa·s]
x2 = 0.1115 | 1.067
x2 = 0.2067 | 1.026
x2 = 0.3061 | 0.9966
x2 = 0.4041 | 0.969
x2 = 0.505 | 0.9433
x2 = 0.6124 | 0.9242
x2 = 0.707 | 0.8969
x2 = 0.797 | 0.8862
x2 = 0.8983 | 0.874

CCCCCl + CCCCCCCCCC
298 K, 101.3 kPa
Conditions | viscosity [mPa·s]
x2 = 0.1032 | 0.4681
x2 = 0.202 | 0.5006
x2 = 0.3087 | 0.5437
x2 = 0.3992 | 0.5768
x2 = 0.5065 | 0.6297
x2 = 0.5992 | 0.6636
x2 = 0.6974 | 0.7109
x2 = 0.7967 | 0.7607
x2 = 0.8968 | 0.811

CCOC(=O)c1ccccc1 + CCCCCCCCCC
101 kPa
Conditions | viscosity [mPa·s]
298.15 K, x2 = 0.0396 | 1.837
298.15 K, x2 = 0.1121 | 1.655
298.15 K, x2 = 0.151 | 1.566
298.15 K, x2 = 0.2285 | 1.42
298.15 K, x2 = 0.2637 | 1.355
298.15 K, x2 = 0.3109 | 1.289
298.15 K, x2 = 0.4026 | 1.176
298.15 K, x2 = 0.4449 | 1.136
298.15 K, x2 = 0.4949 | 1.088
298.15 K, x2 = 0.5326 | 1.056
298.15 K, x2 = 0.5928 | 1.011
298.15 K, x2 = 0.6401 | 0.982
298.15 K, x2 = 0.6988 | 0.947
298.15 K, x2 = 0.812 | 0.894
298.15 K, x2 = 0.8703 | 0.875
298.15 K, x2 = 0.9276 | 0.86
308.15 K, x2 = 0.0574 | 1.521
308.15 K, x2 = 0.0864 | 1.466
308.15 K, x2 = 0.1337 | 1.383
308.15 K, x2 = 0.1677 | 1.329
308.15 K, x2 = 0.1997 | 1.279
308.15 K, x2 = 0.2471 | 1.215
308.15 K, x2 = 0.2846 | 1.165
308.15 K, x2 = 0.3332 | 1.109
308.15 K, x2 = 0.3766 | 1.065
308.15 K, x2 = 0.4181 | 1.024
308.15 K, x2 = 0.4647 | 0.985
308.15 K, x2 = 0.5144 | 0.947
308.15 K, x2 = 0.5655 | 0.913
308.15 K, x2 = 0.6123 | 0.885
308.15 K, x2 = 0.6663 | 0.854
308.15 K, x2 = 0.7228 | 0.828
308.15 K, x2 = 0.7857 | 0.803
308.15 K, x2 = 0.8405 | 0.784
308.15 K, x2 = 0.9073 | 0.764
318.15 K, x2 = 0.0323 | 1.298
318.15 K, x2 = 0.07 | 1.235
318.15 K, x2 = 0.1012 | 1.188
318.15 K, x2 = 0.1446 | 1.128
318.15 K, x2 = 0.1842 | 1.078
318.15 K, x2 = 0.2269 | 1.027
318.15 K, x2 = 0.2679 | 0.984
318.15 K, x2 = 0.3143 | 0.939
318.15 K, x2 = 0.3561 | 0.903
318.15 K, x2 = 0.4045 | 0.866
318.15 K, x2 = 0.4499 | 0.835
318.15 K, x2 = 0.5021 | 0.803
318.15 K, x2 = 0.5496 | 0.777
318.15 K, x2 = 0.6035 | 0.752
318.15 K, x2 = 0.6545 | 0.73
318.15 K, x2 = 0.7126 | 0.708
318.15 K, x2 = 0.7674 | 0.69
318.15 K, x2 = 0.8289 | 0.674
318.15 K, x2 = 0.8862 | 0.661

CC(C)CC1CCCCC1 + CCCCCCCCCCCC
viscosity [mPa·s], 102 kPa
Conditions | x1 = 0.1 | x1 = 0.2011 | x1 = 0.3007 | x1 = 0.4005 | x1 = 0.4977 | x1 = 0.5997 | x1 = 0.6989 | x1 = 0.7996
293.15 K | 1.46 | 1.42 | 1.39 | 1.35 | 1.32 | 1.29 | 1.25 | 1.22
303.15 K | 1.23 | 1.2 | 1.17 | 1.14 | 1.12 | 1.09 | 1.07 | 1.04
313.15 K | 1.05 | 1.02 | 1 | 0.982 | 0.965 | 0.942 | 0.922 | 0.903
323.15 K | 0.902 | 0.889 | 0.874 | 0.856 | 0.842 | 0.824 | 0.809 | 0.793

CC1CCCCC1 + CCCCCCCCCCCC
viscosity [mPa·s], 101 kPa
Conditions | x1 = 0.1004 | x1 = 0.2017 | x1 = 0.2968 | x1 = 0.406 | x1 = 0.5059 | x1 = 0.6011 | x1 = 0.6993 | x1 = 0.7989 | x1 = 0.898
298.15 K | 1.303 | – | – | 1.084 | 1.014 | 0.948 | 0.88 | 0.811 | 0.744
303.15 K | 1.186 | 1.124 | 1.067 | 1.004 | 0.94 | – | 0.821 | 0.756 | 0.694
308.15 K | 1.096 | 1.037 | 0.981 | 0.919 | 0.862 | 0.809 | 0.755 | 0.701 | 0.647

CCCCCCCCCl + CCCCCCCCCCCC
298 K, 101.3 kPa
Conditions | viscosity [mPa·s]
x2 = 0.1064 | 1.143
x2 = 0.2068 | 1.151
x2 = 0.308 | 1.177
x2 = 0.4061 | 1.185
x2 = 0.5066 | 1.218
x2 = 0.6038 | 1.232
x2 = 0.6927 | 1.262
x2 = 0.7984 | 1.288
x2 = 0.8945 | 1.317

CCCCCl + CCCCCCCCCCCC
298 K, 101.3 kPa
Conditions | viscosity [mPa·s]
x2 = 0.1032 | 0.5072
x2 = 0.202 | 0.5794
x2 = 0.2999 | 0.6598
x2 = 0.3986 | 0.7447
x2 = 0.4981 | 0.8232
x2 = 0.6017 | 0.9282
x2 = 0.7015 | 1.034
x2 = 0.7981 | 1.13
x2 = 0.8948 | 1.22
